The source of these data is patent US10233200B2, “Organomodified monosilyl compound, its preparation and applications thereof” (Momentive Performance Materials Inc., priority 2017, dated 2019).

The test system of one data set is canola leaf. Description: Uptake of [C14]-2,4-D DMA salt into canola leaf. The data set is classed as in vivo. The note with it: no adjuvant compound (0 % wt/vol), 2,4-D alone. On the procedure: The uptake of [C^14]-2,4-dichlorophenoxyacetic acid, dimethylamine salt (2,4-D DMA salt) (1% a.e./100 L/ha) was determined in canola at 2 HAT and 24 HAT (Hours After Treatment) according to the method described by Lui, in Pro. 18th Asian-Pacific Weed Sci. Soc. Conf., pp. 561-566. Liu, Z Q; 2001.

Data set [1] in a line: Spreading of a 10 μL droplet of surfactant solution on polystyrene Petri dishes. Conditions: 10 μL droplet on polystyrene, after 30 seconds, 22 to 25° C., RH 50-70%. Type of data set: physicochemical. The procedure:
Spreading was determined by applying a 10 μL droplet, of surfactant solution to polystyrene Petri dishes (Fisher Scientific) and measuring the spread diameter (mm) after 30 seconds, at a relative humidity between 50 and 70% (at 22 to 25° C.). The solution was applied with an automatic pipette to provide droplets of reproducible volume. Deionized water that was further purified with a Millipore filtration system was used to prepare the surfactant solutions.

For the compound `CNC.O=C(O)COc1ccc(Cl)cc1Cl` [2,4-D alone, 2,4-dichlorophenoxyacetic acid, dimethylamine salt], the “Uptake % (2 HAT)” value in the data set with canola leaf (2 HAT) came to 12.1e %. Further, in the data set with canola leaf (24 HAT), the “Uptake % (24 HAT)” value was found to be 70.2 a %.
For “(H3C)3CCH2CH2—Si(CH3)2—CH2CH2CH2—O—CH2CH(OH)CH2N^+(CH3)2—CH2CH2CH2OH [Ex. 8, (H3C)3CCH2CH2—Si(CH3)2—CH2CH2CH2—O—CH2CH(OH)CH2N^+(CH3)2—CH2CH2CH2OH [(CH2OH)2(CH3)C—COO^−]]”, the “Spread Diameter” value in data set [1] (0.05 weight % compound) came to 10 mm; in data set [1] (0.1 weight % compound) it was 21 mm; in data set [1] (0.2 weight % compound), 33 mm.
